Data taken from ChEMBL document CHEMBL1201862, “PubChem BioAssay data set” (2004).
Calls of active or inactive are those of the source.

How the values were obtained:
Streptococcus = assay: Group A Streptococcus viability loss, dose response, counter-screen for streptokinase expression inhibitor project, luminescence, BacTiterGlo (AID 1915); type: functional, organism-based;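 note: potency for reduction of bacterial viability or growth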
[1] = test system: Streptococcus sp. 'group A'; assay: growth inhibition of control SK(-) GAS strain, dose response, counter-screen for streptokinase expression inhibitor project, luminescence, kanamycin, BacTiterGlo, confirmation (AID 1900); type: functional, organism-based
[2] = target: T1, Ubiquitin-conjugating enzyme E2 N (Homo sapiens, UniProt P61088); type: functional
T1 sequence (P61088 whole entry): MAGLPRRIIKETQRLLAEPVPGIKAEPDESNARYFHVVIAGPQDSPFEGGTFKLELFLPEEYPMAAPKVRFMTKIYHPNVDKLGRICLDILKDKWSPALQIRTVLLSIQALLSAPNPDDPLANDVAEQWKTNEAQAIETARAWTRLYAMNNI

[3] = target: T1, Ubiquitin-conjugating enzyme E2 N; type: functional; remark: listed apart in the source
Bcl-2-related protein A1 [4] = target: T2, Bcl-2-related protein A1 (Mus musculus, UniProt Q07440); type: functional;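 note: confirmatory dose–response counterscreen on Bfl-1, used to check hits from a UBC13 polyubiquitin inhibitor campaign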
T2 sequence (Q07440 whole entry): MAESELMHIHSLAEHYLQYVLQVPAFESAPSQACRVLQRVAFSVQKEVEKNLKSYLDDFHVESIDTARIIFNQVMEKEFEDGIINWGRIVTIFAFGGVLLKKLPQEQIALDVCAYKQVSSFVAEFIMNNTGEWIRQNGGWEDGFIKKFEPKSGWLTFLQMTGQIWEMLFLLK

Streptokinase A = target: T3, Streptokinase A (Streptococcus pyogenes serotype M1, UniProt P10520); assay: S. pyogenes streptokinase expression inhibitors, potency, dose response, plasminogen activation absorbance, OD405 (AID 1914); type: functional, Streptococcus pyogenes M1 GAS;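 note: secreted streptokinase activity via plasminogen activation per viability signal from cell pellet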
T3 sequence (P10520 whole entry): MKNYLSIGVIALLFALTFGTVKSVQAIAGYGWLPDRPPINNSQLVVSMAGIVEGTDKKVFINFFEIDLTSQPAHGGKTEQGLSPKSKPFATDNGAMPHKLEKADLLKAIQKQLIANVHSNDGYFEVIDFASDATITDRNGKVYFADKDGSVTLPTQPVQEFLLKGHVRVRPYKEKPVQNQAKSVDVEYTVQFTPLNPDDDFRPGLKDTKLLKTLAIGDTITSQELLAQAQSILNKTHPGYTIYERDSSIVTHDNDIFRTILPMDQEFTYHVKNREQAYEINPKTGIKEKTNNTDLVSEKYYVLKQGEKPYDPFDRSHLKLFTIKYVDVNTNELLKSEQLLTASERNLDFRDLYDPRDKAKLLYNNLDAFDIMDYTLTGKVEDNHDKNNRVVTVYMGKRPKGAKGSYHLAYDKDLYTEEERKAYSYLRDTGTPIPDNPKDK

Tumor necrosis factor = Tumor necrosis factor (Homo sapiens, UniProt P01375); assay: TNFa-triggered NF-kB activation inhibitors, SAR follow-up, cell-based, set 3 (AID 2801); type: functional
Tumor necrosis factor, sequence (P01375 whole entry): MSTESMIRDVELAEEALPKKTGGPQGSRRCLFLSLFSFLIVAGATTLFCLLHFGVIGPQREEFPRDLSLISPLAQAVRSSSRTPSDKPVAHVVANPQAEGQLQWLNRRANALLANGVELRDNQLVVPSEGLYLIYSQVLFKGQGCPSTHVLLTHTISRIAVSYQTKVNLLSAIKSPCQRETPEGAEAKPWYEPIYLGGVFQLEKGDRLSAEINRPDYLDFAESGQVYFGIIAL

HEK293 = assay: SAR analysis of compounds that are cytotoxic to HEK293 - Set 3. [Related pubchem assays (depositor defined):AID1575, AID1578, AID1848, AID1849, AID2001, AID2333, AID2334, AID2335, AID2337, AID2469]; type: functional, cell-based; details: Homo sapiens
[5] = target: T4, Nucleotide-binding oligomerization domain-containing protein 1 (Homo sapiens, UniProt Q9Y239); assay: SAR analysis of compounds that inhibit NOD1 - Set 3. [Related pubchem assays (depositor defined):AID1566, AID1575, AID1578, AID1849, AID1852, AID2333, AID2335, AID2466]; type: functional
T4 sequence (Q9Y239 whole entry): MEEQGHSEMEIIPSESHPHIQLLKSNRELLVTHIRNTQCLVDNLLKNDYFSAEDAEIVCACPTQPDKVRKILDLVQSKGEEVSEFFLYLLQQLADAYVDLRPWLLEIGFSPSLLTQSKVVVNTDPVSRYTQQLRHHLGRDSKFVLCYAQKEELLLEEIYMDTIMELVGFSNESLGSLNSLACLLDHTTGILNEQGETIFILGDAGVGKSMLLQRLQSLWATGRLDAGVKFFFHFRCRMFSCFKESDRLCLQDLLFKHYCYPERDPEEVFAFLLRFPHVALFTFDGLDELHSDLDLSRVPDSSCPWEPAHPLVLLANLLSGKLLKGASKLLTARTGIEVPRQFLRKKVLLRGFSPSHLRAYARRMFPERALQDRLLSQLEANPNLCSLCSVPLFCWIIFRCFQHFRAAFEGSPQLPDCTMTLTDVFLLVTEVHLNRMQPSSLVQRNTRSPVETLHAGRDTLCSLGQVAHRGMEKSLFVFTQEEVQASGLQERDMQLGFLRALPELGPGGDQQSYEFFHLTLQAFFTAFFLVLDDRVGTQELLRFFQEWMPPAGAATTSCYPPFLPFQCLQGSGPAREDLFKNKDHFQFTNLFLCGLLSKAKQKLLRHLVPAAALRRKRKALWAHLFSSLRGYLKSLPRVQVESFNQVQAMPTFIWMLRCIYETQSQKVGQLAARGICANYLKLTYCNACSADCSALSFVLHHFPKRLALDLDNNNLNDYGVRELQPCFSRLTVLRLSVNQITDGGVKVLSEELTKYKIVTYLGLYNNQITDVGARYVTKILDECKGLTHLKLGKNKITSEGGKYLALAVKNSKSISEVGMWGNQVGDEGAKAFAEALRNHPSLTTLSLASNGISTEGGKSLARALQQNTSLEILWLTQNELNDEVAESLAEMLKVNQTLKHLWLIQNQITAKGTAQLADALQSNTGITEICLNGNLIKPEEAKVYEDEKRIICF

Bcl-2-related protein A1 [6] = target: T2, Bcl-2-related protein A1; assay: Bfl-1 binding inhibitors, SAR follow-up, biochemical, fluorescence polarization (AID 1070)
[7] = target: Glyceraldehyde-3-phosphate dehydrogenase (Homo sapiens, UniProt P04406)
Glyceraldehyde-3-phosphate dehydrogenase, sequence (P04406 whole entry, the tested form may be a part): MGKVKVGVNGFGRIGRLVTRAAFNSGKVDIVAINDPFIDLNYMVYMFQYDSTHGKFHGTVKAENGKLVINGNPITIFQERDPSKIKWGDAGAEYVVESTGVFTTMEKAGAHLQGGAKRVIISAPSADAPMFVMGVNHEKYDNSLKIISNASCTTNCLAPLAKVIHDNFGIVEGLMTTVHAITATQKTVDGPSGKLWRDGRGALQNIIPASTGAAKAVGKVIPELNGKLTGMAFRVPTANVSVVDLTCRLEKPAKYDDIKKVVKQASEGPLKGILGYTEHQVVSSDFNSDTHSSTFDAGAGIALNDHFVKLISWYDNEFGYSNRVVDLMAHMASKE

[8] = target: Nucleotide-binding oligomerization domain-containing protein 2 (Homo sapiens, UniProt Q9HC29); assay: NOD2 signaling inhibitors, analog potency, SAR follow-up, cell-based, set 3 (AID 2799); type: functional
Nucleotide-binding oligomerization domain-containing protein 2, sequence (Q9HC29 whole entry, the tested form may be a part): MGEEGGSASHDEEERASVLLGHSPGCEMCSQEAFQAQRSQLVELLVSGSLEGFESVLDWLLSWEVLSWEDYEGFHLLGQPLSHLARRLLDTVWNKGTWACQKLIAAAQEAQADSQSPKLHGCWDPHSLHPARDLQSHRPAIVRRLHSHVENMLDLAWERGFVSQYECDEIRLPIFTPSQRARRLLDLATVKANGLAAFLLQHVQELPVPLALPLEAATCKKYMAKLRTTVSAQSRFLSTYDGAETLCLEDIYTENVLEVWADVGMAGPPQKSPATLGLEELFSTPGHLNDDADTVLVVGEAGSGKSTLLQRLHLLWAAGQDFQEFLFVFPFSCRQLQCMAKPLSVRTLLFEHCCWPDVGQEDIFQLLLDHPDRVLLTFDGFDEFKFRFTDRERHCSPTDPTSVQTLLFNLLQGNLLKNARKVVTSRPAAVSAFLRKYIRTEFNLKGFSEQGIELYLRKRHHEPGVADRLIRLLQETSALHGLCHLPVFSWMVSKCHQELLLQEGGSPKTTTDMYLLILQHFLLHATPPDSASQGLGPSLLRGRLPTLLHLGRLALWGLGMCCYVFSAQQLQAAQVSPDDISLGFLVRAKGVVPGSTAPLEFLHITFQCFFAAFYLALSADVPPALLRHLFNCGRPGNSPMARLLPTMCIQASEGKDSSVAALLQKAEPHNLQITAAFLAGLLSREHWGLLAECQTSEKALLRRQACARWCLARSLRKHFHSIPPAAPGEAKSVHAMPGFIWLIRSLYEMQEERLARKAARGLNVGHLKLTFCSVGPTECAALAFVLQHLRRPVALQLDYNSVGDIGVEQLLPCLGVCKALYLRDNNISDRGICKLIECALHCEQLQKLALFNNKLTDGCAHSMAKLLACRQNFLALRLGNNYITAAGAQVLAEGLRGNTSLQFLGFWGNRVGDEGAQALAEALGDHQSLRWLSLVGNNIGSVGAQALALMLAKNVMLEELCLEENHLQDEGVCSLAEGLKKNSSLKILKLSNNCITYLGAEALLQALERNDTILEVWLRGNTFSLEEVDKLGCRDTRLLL

Bcl-2-related protein A1 [9] = target: T2, Bcl-2-related protein A1; assay: Bfl-1 inhibitors blocking BH3 peptide binding, confirmation, biochemical, TR-FRET, mouse Bfl-1 (AID 621);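 note: TR-FRET binding of GST-Bfl-1 to FITC-labelled Bid peptide via terbium antibody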
[10] = growth suppression of beta-catenin-knockout colon cells, dose response, cell-based, HCT116, human colon tumor (AID 1045); type: functional;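 note: HCT116 colon tumor cells with beta catenin knocked out; cells exposed to compound for 60 hours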
[11] = target: T5, Dual specificity protein phosphatase 3 (Homo sapiens, UniProt P51452); assay: VHR1 phosphatase inhibitors, primary screen, biochemical, absorbance, uHTS (AID 1654)
T5 sequence (P51452 whole entry): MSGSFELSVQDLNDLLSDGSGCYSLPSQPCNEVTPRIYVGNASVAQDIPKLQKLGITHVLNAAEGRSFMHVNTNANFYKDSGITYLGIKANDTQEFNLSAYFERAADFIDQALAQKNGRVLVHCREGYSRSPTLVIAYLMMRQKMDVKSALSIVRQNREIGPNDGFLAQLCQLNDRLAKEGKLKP

[12] = target: Tyrosine-protein phosphatase non-receptor type 11 (Homo sapiens, UniProt Q06124); assay: SHP2 phosphatase inhibition, dose response, selectivity assay for STEP inhibitor project, biochemical (AID 602367); type: functional; details: read-out: IC50_Mean
[13] = target: T5, Dual specificity protein phosphatase 3; assay: VHR1 phosphatase inhibitors, biochemical (AID 1878)
[14] = target: T5, Dual specificity protein phosphatase 3; assay: VHR phosphatase inhibition, dose response, selectivity assay for STEP inhibitor project, biochemical (AID 602374); type: functional; details: read-out: IC50_Mean
[15] = growth suppression of PTEN-null colon cells, dose response, cell-based, HCT116 PTEN knockout (AID 1047); type: functional;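 note: HCT116 colon tumor cells with PTEN knocked out; cells exposed to compound for 60 hours before readout; potency for loss of cell viability measured by luminescence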
[16] = target: T6, Low molecular weight phosphotyrosine protein phosphatase (Homo sapiens, UniProt P24666); type: functional; details: read-out: IC50_Mean
T6 sequence (P24666 whole entry): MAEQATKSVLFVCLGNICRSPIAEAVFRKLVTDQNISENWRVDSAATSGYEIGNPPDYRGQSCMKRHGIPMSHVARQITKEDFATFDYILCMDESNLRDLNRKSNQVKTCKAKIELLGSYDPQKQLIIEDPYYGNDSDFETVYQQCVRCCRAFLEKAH

[17] = target: Tyrosine-protein phosphatase non-receptor type 5 (Homo sapiens, UniProt P54829); assay: STEP phosphatase inhibitors, confirmation, biochemical, fluorescence intensity, uHTS hits (AID 602372); type: functional; details: read-out: IC50_Mean
[18] = target: T7, Dual specificity protein phosphatase 6 (Rattus norvegicus, UniProt Q64346); assay: MKP-3 phosphatase inhibitors, primary screen, biochemical, rat enzyme, in vitro (AID 425)
T7 sequence (Q64346 whole entry): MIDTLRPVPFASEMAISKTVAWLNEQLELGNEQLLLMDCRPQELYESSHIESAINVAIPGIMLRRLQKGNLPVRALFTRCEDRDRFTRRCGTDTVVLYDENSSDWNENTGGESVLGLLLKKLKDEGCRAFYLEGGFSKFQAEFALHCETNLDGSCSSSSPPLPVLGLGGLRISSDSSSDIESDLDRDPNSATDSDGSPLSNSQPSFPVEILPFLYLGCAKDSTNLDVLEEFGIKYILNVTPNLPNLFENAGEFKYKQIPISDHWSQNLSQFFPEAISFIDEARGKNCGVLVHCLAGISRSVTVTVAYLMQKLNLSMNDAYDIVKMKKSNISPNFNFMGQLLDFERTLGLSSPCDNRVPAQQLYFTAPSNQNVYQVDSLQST

[19] = target: T6, Low molecular weight phosphotyrosine protein phosphatase; type: functional; details: read-out: IC50_Mean; remark: listed apart in the source
[20] = target: T8, Tyrosine-protein phosphatase non-receptor type 22 (Homo sapiens, UniProt Q9Y2R2); type: functional
T8 sequence (Q9Y2R2 whole entry): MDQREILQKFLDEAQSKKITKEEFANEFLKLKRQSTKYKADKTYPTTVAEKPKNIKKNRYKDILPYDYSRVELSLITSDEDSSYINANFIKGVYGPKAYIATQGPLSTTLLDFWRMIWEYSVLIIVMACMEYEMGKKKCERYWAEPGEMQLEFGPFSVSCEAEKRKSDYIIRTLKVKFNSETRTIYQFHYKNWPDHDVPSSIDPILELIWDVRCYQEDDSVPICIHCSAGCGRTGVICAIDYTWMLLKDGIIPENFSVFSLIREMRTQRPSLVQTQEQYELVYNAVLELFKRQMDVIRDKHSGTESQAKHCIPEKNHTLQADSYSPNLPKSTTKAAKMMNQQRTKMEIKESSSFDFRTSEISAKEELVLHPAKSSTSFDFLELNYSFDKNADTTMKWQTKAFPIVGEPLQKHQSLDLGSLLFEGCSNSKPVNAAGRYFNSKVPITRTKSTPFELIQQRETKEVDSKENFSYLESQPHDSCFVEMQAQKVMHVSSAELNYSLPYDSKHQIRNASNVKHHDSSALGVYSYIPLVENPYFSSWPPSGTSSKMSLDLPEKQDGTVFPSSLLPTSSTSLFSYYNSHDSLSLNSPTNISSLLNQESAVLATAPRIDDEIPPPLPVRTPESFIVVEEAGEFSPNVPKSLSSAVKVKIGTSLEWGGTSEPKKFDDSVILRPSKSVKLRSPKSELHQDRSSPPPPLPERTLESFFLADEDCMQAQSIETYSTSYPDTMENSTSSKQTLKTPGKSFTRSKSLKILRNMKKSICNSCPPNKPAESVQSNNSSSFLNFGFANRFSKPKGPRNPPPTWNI

[21] = target: T9, Tyrosine-protein phosphatase non-receptor type 7 (Homo sapiens, UniProt P35236); type: functional
T9 sequence (P35236 whole entry): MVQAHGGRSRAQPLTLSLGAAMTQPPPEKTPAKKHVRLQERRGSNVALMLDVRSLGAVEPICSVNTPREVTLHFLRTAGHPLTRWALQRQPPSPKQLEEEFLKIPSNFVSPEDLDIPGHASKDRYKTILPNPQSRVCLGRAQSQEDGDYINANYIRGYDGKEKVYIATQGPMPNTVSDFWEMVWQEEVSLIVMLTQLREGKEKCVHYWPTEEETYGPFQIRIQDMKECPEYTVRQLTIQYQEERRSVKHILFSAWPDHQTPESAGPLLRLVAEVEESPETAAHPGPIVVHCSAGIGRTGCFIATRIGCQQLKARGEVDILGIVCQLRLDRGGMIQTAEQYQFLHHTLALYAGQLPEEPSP

[22] = target: T8, Tyrosine-protein phosphatase non-receptor type 22; type: functional; remark: listed apart in the source
[23] = target: Signal transducer and activator of transcription 3 (Homo sapiens, UniProt P40763); assay: STAT3 inhibitors, late-stage profile, late-stage follow-up, cell-based, STAT1 panel, qPCR, cytotoxicity, panel member STAT3 Inhibition (AID 2078)
[24] = target: Signal transducer and activator of transcription 1-alpha/beta (Homo sapiens, UniProt P42224); assay: STAT3 inhibitors, late-stage profile, late-stage follow-up, cell-based, STAT1 panel, qPCR, cytotoxicity, panel member STAT1 Inhibition (AID 2078)
Signal transducer and activator of transcription 1-alpha/beta, sequence (P42224 whole entry): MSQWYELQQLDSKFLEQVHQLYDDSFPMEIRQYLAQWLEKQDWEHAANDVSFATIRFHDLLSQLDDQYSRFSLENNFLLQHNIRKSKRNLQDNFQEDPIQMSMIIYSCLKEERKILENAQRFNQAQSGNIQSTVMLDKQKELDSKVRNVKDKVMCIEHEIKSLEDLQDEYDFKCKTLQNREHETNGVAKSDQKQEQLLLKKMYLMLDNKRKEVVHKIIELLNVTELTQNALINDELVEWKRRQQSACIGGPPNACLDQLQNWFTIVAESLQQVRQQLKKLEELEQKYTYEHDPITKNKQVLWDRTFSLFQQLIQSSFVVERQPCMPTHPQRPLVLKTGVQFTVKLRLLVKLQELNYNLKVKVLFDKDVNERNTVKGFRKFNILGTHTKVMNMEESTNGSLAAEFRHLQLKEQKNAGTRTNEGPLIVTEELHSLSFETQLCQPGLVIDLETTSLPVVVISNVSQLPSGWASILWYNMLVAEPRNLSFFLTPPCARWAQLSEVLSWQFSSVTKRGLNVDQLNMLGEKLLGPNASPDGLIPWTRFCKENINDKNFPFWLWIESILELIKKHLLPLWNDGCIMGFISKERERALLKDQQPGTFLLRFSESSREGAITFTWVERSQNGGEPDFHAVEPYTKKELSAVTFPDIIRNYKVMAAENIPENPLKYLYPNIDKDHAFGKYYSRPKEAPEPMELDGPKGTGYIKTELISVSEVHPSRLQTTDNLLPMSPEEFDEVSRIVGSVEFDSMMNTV

[25] = target: Voltage-dependent T-type calcium channel subunit alpha-1H (Homo sapiens, UniProt O95180); assay: Cav3.2 T-type channel blockers, cell-based, SynthLib3 library, HEK293 Cav3.2, fluorescence (AID 493041); type: functional
Voltage-dependent T-type calcium channel subunit alpha-1H, sequence (O95180 whole entry): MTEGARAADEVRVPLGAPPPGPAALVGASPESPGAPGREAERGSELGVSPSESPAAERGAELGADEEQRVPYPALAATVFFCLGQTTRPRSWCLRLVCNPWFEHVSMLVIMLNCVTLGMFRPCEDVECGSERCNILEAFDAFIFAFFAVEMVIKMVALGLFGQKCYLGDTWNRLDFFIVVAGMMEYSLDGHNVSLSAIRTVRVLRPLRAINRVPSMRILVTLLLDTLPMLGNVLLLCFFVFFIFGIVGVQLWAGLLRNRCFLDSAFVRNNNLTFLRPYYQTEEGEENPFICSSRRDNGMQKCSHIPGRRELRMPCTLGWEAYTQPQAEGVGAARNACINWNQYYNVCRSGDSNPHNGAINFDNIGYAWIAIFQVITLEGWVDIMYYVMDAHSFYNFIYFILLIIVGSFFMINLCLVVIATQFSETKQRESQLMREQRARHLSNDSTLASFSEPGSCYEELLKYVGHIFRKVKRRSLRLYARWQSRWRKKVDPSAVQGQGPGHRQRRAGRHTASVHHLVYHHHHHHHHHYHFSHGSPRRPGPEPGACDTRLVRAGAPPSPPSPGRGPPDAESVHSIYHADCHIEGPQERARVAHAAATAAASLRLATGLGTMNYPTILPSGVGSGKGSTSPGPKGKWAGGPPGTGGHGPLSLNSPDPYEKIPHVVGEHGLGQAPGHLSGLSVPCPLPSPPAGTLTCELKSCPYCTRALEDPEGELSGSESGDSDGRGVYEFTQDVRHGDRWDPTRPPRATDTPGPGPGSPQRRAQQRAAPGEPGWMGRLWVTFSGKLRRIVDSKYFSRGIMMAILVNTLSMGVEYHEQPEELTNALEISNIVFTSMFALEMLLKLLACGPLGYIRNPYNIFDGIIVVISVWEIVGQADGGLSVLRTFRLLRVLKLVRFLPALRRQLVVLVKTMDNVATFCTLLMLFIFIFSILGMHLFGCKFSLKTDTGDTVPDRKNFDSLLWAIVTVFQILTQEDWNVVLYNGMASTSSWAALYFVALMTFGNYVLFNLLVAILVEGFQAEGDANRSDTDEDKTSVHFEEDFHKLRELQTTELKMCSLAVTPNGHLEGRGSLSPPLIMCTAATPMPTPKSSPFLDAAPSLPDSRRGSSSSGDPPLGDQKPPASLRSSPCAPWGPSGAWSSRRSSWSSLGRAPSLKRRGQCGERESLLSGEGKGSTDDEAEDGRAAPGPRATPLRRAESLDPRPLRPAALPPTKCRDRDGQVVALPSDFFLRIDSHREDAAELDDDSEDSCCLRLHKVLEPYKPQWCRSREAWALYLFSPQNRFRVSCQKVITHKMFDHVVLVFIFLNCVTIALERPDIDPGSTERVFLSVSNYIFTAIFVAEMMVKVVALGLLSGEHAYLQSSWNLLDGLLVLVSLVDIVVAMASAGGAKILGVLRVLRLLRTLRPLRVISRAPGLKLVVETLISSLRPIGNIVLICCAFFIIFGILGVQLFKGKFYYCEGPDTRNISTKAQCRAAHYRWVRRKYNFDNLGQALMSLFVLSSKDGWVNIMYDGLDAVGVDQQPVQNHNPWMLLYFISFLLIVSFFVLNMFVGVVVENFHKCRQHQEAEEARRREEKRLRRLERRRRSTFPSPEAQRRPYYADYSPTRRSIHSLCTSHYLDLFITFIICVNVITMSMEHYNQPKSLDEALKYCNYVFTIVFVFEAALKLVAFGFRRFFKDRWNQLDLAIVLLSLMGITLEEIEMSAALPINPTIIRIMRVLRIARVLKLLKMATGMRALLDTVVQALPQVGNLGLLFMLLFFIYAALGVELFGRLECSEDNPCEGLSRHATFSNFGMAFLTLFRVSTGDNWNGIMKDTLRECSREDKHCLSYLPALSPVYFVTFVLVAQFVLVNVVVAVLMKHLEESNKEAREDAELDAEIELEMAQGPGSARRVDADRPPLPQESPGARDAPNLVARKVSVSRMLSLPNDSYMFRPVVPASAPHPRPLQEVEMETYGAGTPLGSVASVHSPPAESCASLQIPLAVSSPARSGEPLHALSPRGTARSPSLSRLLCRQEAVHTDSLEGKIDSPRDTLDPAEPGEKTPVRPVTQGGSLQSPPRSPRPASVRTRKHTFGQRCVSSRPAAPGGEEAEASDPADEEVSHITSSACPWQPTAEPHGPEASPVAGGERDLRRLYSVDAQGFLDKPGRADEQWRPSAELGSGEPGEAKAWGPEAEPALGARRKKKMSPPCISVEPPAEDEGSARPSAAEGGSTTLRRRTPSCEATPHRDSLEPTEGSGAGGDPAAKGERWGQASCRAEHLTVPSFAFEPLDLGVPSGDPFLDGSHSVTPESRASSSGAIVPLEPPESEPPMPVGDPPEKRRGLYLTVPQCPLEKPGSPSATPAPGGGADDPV

Structure (SMILES): COc1ccc(OCC(=O)NNC(=S)NC(=O)C2CC2)cc1
- EC50 (Streptococcus): 23.3 µM (active)
- EC50 [1]: 7.37 µM (active)
- IC50 [2]: 14.8 µM (active)
- IC50 [3]: 6.63 µM (active)
- IC50 (Bcl-2-related protein A1 [4]): > 20 µM (inactive)
- EC50 (Streptokinase A): > 150 µM (not active)

Structure (SMILES): COc1ccc(-c2cc(N)n(S(=O)(=O)c3ccc(C(C)(C)C)cc3)n2)cc1OC
- IC50 (Tumor necrosis factor): > 20 µM (inactive)
- IC50 (HEK293): > 20 µM (inactive)
- IC50 [5]: > 20 µM (inactive)
- IC50 (Bcl-2-related protein A1 [6]): > 100 µM (not active)
- IC50 [7]: > 100 µM (not active)
- IC50 [8]: > 20 µM (inactive)
- IC50 (Bcl-2-related protein A1 [9]): > 100 µM (not active)

Structure (SMILES): Cc1ccc(-c2nc(NC(=O)CSc3cc(C)c4ccccc4n3)ns2)cc1
- EC50 [10]: 17.9 µM (active)
- IC50 [11]: 27.3 µM (active)
- IC50 [12]: 0.77 µM (active)
- IC50 [13]: 8.86 µM (active)
- IC50 [14]: 1.31 µM (active)
- EC50 [15]: 29.1 µM (active)
- IC50 [16]: 11.7 µM (active)
- IC50 [17]: 3.06 µM (active)
- IC50 [18]: 24.3 µM (active)
- IC50 [19]: 9.06 µM (active)

Structure (SMILES): O=C(C[S+]([O-])CC(=O)Nc1ccc(Cl)cc1)NCC1OCCc2ccccc21 (centres undefined)
- IC50 [20]: > 79.4 µM (inactive)
- IC50 [21]: > 79.4 µM (inactive)
- IC50 [22]: > 79.4 µM (inactive)

Structure (SMILES): COc1ccc(CN2CCN(c3ncnc4sc5c(c34)CCCCC5)CC2)cc1
- IC50 [23]: > 18.6 µM (inactive)
- IC50 [24]: > 55.7 µM (inactive)

Structure (SMILES): CCC(CC)CN1CC2CCC(NC(=O)c3cc(Cl)cc(Cl)c3)C2C1 (centres undefined)
- EC50 [25]: 2.4 µM (active)
